Results taken from ChEMBL document CHEMBL3352801, “Synthesis and lipid-lowering evaluation of 3-methyl-1H-purine-2,6-dione derivatives as potent and orally available anti-obesity agents” (Eur J Med Chem, 2014).

What was measured:
[1] = AUC (0 to t) in Sprague-Dawley rat at 5 mg/kg, iv; assay type: ADME, organism-based; design: dose 5 mg/kg, route intravenous; conditions: plasma
[2] = Half life in Sprague-Dawley rat at 20 mg/kg, po; assay type: ADME, organism-based; design: dose 20 mg/kg, route oral; conditions: in vivo
Mus musculus [3] = assay: Antiobesity activity in diet-induced obese C57Bl/6 mouse assessed as loss of epididymal fat mass at 20 mg/kg/day, po for 4 weeks administered with high-fat diet; assay type: functional
Mus musculus [4] = assay: Antiobesity activity in diet-induced obese C57Bl/6 mouse assessed as change in insulin level at 50 mg/kg/day, po for 4 weeks administered with high-fat diet (reference value: 4.31 +/- .82 mU); assay type: functional
Mus musculus [5] = assay: Antiobesity activity in diet-induced obese C57Bl/6 mouse assessed as reduction in FFA level at 50 mg/kg/day, po for 4 weeks administered with high-fat diet (reference value: 25.07 +/- 3.49 ng/L); assay type: functional
Mus musculus [6] = assay: Antiobesity activity in diet-induced obese C57Bl/6 mouse assessed as loss of liver weight at 20 mg/kg/day, po for 4 weeks administered with high-fat diet; assay type: functional
Mus musculus [7] = assay: Antiobesity activity in diet-induced obese C57Bl/6 mouse assessed as reduction in LDL level at 20 mg/kg/day, po for 4 weeks administered with high-fat diet (reference value: 0.13 +/- 0.02 mM); assay type: functional
[8] = Cmax in Sprague-Dawley rat at 20 mg/kg, po; assay type: ADME, organism-based; design: dose 20 mg/kg, route oral; conditions: in vivo
Mus musculus [9] = assay: Antiobesity activity in diet-induced obese C57Bl/6 mouse assessed as change in insulin level at 20 mg/kg/day, po for 4 weeks administered with high-fat diet (reference value: 4.31 +/- .82 mU); assay type: functional
Mus musculus [10] = assay: Antiobesity activity in diet-induced obese C57Bl/6 mouse assessed as reduction in triglyceride level at 20 mg/kg/day, po for 4 weeks administered with high-fat diet (reference value: 0.96 +/- 0.14 mM); assay type: functional
[11] = Half life in Sprague-Dawley rat at 5 mg/kg, iv; assay type: ADME, organism-based; design: dose 5 mg/kg, route intravenous; conditions: in vivo
Mus musculus [12] = assay: Antiobesity activity in diet-induced obese C57Bl/6 mouse assessed as reduction in HOMA-IR value at 50 mg/kg/day, po for 4 weeks administered with high-fat diet (reference value: 0.94 +/- 0.23 no_unit); assay type: functional
[13] = Solubility of the compound at room temperature; assay type: physicochemical
Mus musculus [14] = assay: Antiobesity activity in diet-induced obese C57Bl/6 mouse assessed as reduction in triglyceride level at 50 mg/kg/day, po for 4 weeks administered with high-fat diet (reference value: 0.96 +/- 0.14 mM); assay type: functional
Mus musculus [15] = assay: Antiobesity activity in diet-induced obese C57Bl/6 mouse assessed as reduction in fasting blood glucose at 50 mg/kg/day, po for 4 weeks administered with high-fat diet (reference value: 4.88 +/- 0.75 mM); assay type: functional
[16] = Oral bioavailability in Sprague-Dawley rat at 20 mg/kg; assay type: ADME, organism-based; conditions: in vivo
Mus musculus [17] = assay: Antiobesity activity in diet-induced obese C57Bl/6 mouse assessed as increase in HDL level at 50 mg/kg/day, po for 4 weeks administered with high-fat diet (reference value: 1.02 +/- 0.13 mM); assay type: functional
[18] = Total clearance in Sprague-Dawley rat at 5 mg/kg, iv; assay type: ADME, organism-based; design: dose 5 mg/kg, route intravenous; conditions: in vivo
Mus musculus [19] = assay: Antiobesity activity in diet-induced obese C57Bl/6 mouse assessed as reduction in hepatic triglyceride level at 50 mg/kg/day, po for 4 weeks administered with high-fat diet by Oil Red O staining-based histological method; assay type: functional; design: scale not given: the % may be the effect or the level left
Mus musculus [20] = assay: Antiobesity activity in diet-induced obese C57Bl/6 mouse assessed as loss of liver weight at 150 mg/kg/day, po for 4 weeks administered with high-fat diet; assay type: functional
Mus musculus [21] = assay: Toxicity in diet-induced obese C57Bl/6 mouse assessed as change in AST level at 50 mg/kg/day, po for 4 weeks administered with high-fat diet (reference value: 128.00 +/- 20.59 U/L); assay type: organism-based; design: route oral; conditions: in vivo, 672 h
[22] = Tmax in Sprague-Dawley rat at 5 mg/kg, iv; assay type: ADME, organism-based; design: dose 5 mg/kg, route intravenous; conditions: in vivo
Mus musculus [23] = assay: Antiobesity activity in diet-induced obese C57Bl/6 mouse assessed as reduction in HOMA-IR value at 20 mg/kg/day, po for 4 weeks administered with high-fat diet (reference value: 0.94 +/- 0.23 no_unit); assay type: functional
[24] = AUC (0 to t) in Sprague-Dawley rat at 20 mg/kg, po; assay type: ADME, organism-based; design: dose 20 mg/kg, route oral; conditions: plasma
Mus musculus [25] = assay: Toxicity in diet-induced obese C57Bl/6 mouse assessed as change in AST level at 20 mg/kg/day, po for 4 weeks administered with high-fat diet (reference value: 128.00 +/- 20.59 U/L); assay type: organism-based; design: route oral; conditions: in vivo, 672 h
Mus musculus [26] = assay: Toxicity in diet-induced obese C57Bl/6 mouse assessed as change in ALT level at 20 mg/kg/day, po for 4 weeks administered with high-fat diet (reference value: 29.6 +/- 8.29 U/L); assay type: organism-based; design: route oral; conditions: in vivo, 672 h
Mus musculus [27] = assay: Antiobesity activity in diet-induced obese C57Bl/6 mouse assessed as increase in HDL level at 20 mg/kg/day, po for 4 weeks administered with high-fat diet (reference value: 1.02 +/- 0.13 mM); assay type: functional
Mus musculus [28] = assay: Antiobesity activity in diet-induced obese C57Bl/6 mouse assessed as reduction in fasting blood glucose at 20 mg/kg/day, po for 4 weeks administered with high-fat diet (reference value: 4.88 +/- 0.75 mM); assay type: functional
Mus musculus [29] = assay: Antiobesity activity in diet-induced obese C57Bl/6 mouse assessed as reduction in LDL level at 50 mg/kg/day, po for 4 weeks administered with high-fat diet (reference value: 0.13 +/- 0.02 mM); assay type: functional
[30] = Volume of distribution in Sprague-Dawley rat at 5 mg/kg, iv; assay type: ADME, organism-based; design: dose 5 mg/kg, route intravenous; conditions: in vivo
[31] = Total clearance in Sprague-Dawley rat at 20 mg/kg, po; assay type: ADME, organism-based; design: dose 20 mg/kg, route oral; conditions: in vivo
Mus musculus [32] = assay: Antiobesity activity in diet-induced obese C57Bl/6 mouse assessed as reduction in FFA level at 20 mg/kg/day, po for 4 weeks administered with high-fat diet (reference value: 25.07 +/- 3.49 ng/L); assay type: functional
Mus musculus [33] = assay: Antiobesity activity in diet-induced obese C57Bl/6 mouse assessed as reduction in body weight at 20 mg/kg/day, po for 4 weeks administered with high-fat diet; assay type: functional; design: scale not given: the % may be the effect or the level left
Mus musculus [34] = assay: Antiobesity activity in diet-induced obese C57Bl/6 mouse assessed as loss of liver weight at 50 mg/kg/day, po for 4 weeks administered with high-fat diet; assay type: functional
Mus musculus [35] = assay: Toxicity in diet-induced obese C57Bl/6 mouse assessed as change in ALT level at 50 mg/kg/day, po for 4 weeks administered with high-fat diet (reference value: 29.6 +/- 8.29 U/L); assay type: organism-based; design: route oral; conditions: in vivo, 672 h
Mus musculus [36] = assay: Antiobesity activity in diet-induced obese C57Bl/6 mouse assessed as reduction in hepatic triglyceride level at 20 mg/kg/day, po for 4 weeks administered with high-fat diet by Oil Red O staining-based histological method; assay type: functional; design: scale not given: the % may be the effect or the level left
[37] = Tmax in Sprague-Dawley rat at 20 mg/kg, po; assay type: ADME, organism-based; design: dose 20 mg/kg, route oral; conditions: in vivo
Rattus norvegicus = assay: Volume of distribution in Sprague-Dawley rat at 20 mg/kg, po; assay type: ADME, organism-based; design: dose 20 mg/kg, route oral; conditions: in vivo
Mus musculus [38] = assay: Antiobesity activity in diet-induced obese C57Bl/6 mouse assessed as loss of epididymal fat mass at 50 mg/kg/day, po for 4 weeks administered with high-fat diet; assay type: functional
Mus musculus [39] = assay: Antiobesity activity in diet-induced obese C57Bl/6 mouse assessed as reduction in body weight at 50 mg/kg/day, po for 4 weeks administered with high-fat diet; assay type: functional; design: scale not given: the % may be the effect or the level left
Mus musculus [40] = assay: Toxicity in diet-induced obese C57Bl/6 mouse assessed as change in food intake at 20 mg/kg/day, po for 4 weeks administered with high-fat diet; assay type: organism-based; design: route oral; conditions: in vivo, 672 h
Mus musculus [41] = assay: Antiobesity activity in diet-induced obese C57Bl/6 mouse assessed as loss of epididymal fat mass at 150 mg/kg/day, po for 4 weeks administered with high-fat diet; assay type: functional
[42] = Cmax in Sprague-Dawley rat at 5 mg/kg, iv; assay type: ADME, organism-based; design: dose 5 mg/kg, route intravenous; conditions: in vivo

## CCn1c(-c2ccc(OCCN(C)c3ccccn3)cc2)nc2c1c(=O)n(Cc1ccccc1C#N)c(=O)n2C.Cl
[1]
  AUC(0-t): 1780 ng·h/mL
[2]
  half-life: 6.97 h
Mus musculus [3]
  Activity: 18.18%
Mus musculus [4]
  Activity: 4.76 mU
Mus musculus [5]
  Activity: 25.73 ng/L
Mus musculus [6]
  Activity: 20%
Mus musculus [7]
  Activity: 0.22 mM
[8]
  Cmax: 465 ng/mL
Mus musculus [9]
  Activity: 7.48 mU
Mus musculus [10]
  Activity: 1.25 mM
[11]
  half-life: 5.82 h
Mus musculus [12]
  Activity: 1.59
[13]
  solubility: 3280 µg/mL
Mus musculus [14]
  Activity: 0.94 mM
Mus musculus [15]
  Activity: 7.76 mM
[16]
  bioavailability: 58.9%
Mus musculus [17]
  Activity: 1.38 mM
[18]
  clearance: 47.1 mL/min/kg
Mus musculus [19]
  Activity: 21.59%
Mus musculus [20]
  Activity: 22%
Mus musculus [21]
  Activity: 131.43 U/L
[22]
  Tmax: 4.98 min
Mus musculus [23]
  Activity: 2.98
[24]
  AUC(0-t): 4190 ng·h/mL
Mus musculus [25]
  Activity: 125.71 U/L
Mus musculus [26]
  Activity: 24 U/L
Mus musculus [27]
  Activity: 1.31 mM
Mus musculus [28]
  Activity: 8.42 mM
Mus musculus [29]
  Activity: 0.17 mM
[30]
  Vd: 23.6 L/kg
[31]
  CL/F: 139 mL/min/kg
Mus musculus [32]
  Activity: 26.8 ng/L
Mus musculus [33]
  Activity: 12.86%
Mus musculus [34]
  Activity: 22.67%
Mus musculus [35]
  Activity: 18.86 U/L
Mus musculus [36]
  Activity: 16.8%
[37]
  Tmax: 2.79 h
Rattus norvegicus
  Vd: 67.208 L/kg
Mus musculus [38]
  Activity: 56.2%
Mus musculus [39]
  Activity: 15.08%
Mus musculus [40]
  Activity: Non-toxic
Mus musculus [41]
  Activity: 9.92%
[42]
  Cmax: 1740 ng/mL
